How the values were obtained:
[1] = Solubilisation of Camptothecin by DOTAP/DOPC liposomes, UV/Vis at 369 nm; assay type: physicochemical; conditions: for concentration of solubilized Camptothecin: 10% trehalose
Method: Treated and untreated liposomal formulations were exposed to Camptothecin as described for Paclitaxel in Example 2.1. The concentration of solubilized Camptothecin was determined by UV/Vis-spectroscopy (Beckmann DU 640, Beckmann Coulter, Germany) at 369 nm after dilution in methanol.

[2] = Solubilisation of dry Paclitaxel by empty liposomes, filtration, HPLC quantification
Method: The Agilent 1100 Series HPLC System (Agilent Technologies, Palo Alto, Calif., USA) consisted of a quaternary pump, an autosampler, a column thermostat and an on-line degasser. A LiChrospher 60 RP (5 μm, 4×250 mm) analytical column (Merck, Darmstadt, Germany) was used. The flow rate of the mobile phase, consisting of 32% (v/v) acetonitrile, 12% tetrahydrofuran and 56% ammoniumacetat (2 mM in water, pH value set to 4.8 with acetic acid) was set at 1 ml/min.

[3] = cited from earlier work

Row | SMILES | enhancement of concentration of solubilized agent, pre-treated versus untreated (factor) ([1]; DOTAP/DOPC 50/50 10 mM) | concentration of solubilized Camptothecin ([1]; pre-treated DOTAP/DOPC 50/50 10 mM) [µM] | concentration of solubilized Camptothecin ([1]; untreated DOTAP/DOPC 50/50 10 mM) [µM] | expected amount of solubilised Paclitaxel ([2]; 100 mM liposome preparation, freeze/thaw treated, extrapolated from solubilisation factor) [mM] | loading capacity of single-lipid liposomes after freezing/thawing ([2]; 100% DOTAP and 100% DOPC liposomes, 10 mM) | solubility of Paclitaxel in liposomal preparations versus liquid formulation without pre-treatment ([2]; DOTAP/DOPC 50/50 10 mM, spray dried, spray freeze-dried, freeze-dried, frozen) | amount of solubilised Paclitaxel, freeze/thawed versus untreated (factor) ([2]; DOTAP/DOPC 50/50, at a given lipid concentration) | concentration of solubilised Paclitaxel (maximum obtained) ([2]; DOTAP/DOPC 50/50 liposomes, 10-35 mM lipid, 10% trehalose, after freezing/thawing, 3 h) | loading capacity, treated versus untreated lipid dispersions (factor) ([2]; DOTAP/DOPC mixtures 25/75, 50/50, 75/25, 10 mM lipid, freeze/thaw) | loading capacity of binary lipid mixtures after freeze/thawing ([2]; DOTAP/DOPC, DOTAP/DSPC, DSTAP/DSPC 50/50) | improvement of loading capacity, untreated versus treated liposomes (factor) ([2]; DOTAP/DSPC 50/50 liposomes, freeze/thaw) | loading at 15 min incubation compared with 3 hour incubation ([2]; freeze-dried, rehydrated DOTAP/DOPC 50/50 liposomes) | solubilised concentration of Paclitaxel ([2]; per 1 mM of untreated DOTAP/DOPC) [µM] | solubility of paclitaxel in a corresponding aqueous buffer ([3]; aqueous buffer without liposomes) | solubility of paclitaxel in water ([3]; water)
1 | CC[C@@]1(O)C(=O)OCc2c1cc1n(c2=O)Cc2cc3ccccc3nc2-1 [Camptothecin] | factor of about three | 52 | 18 | – | – | – | – | – | – | – | – | – | – | – | –
2 | CC(=O)O[C@H]1C(=O)[C@@]2(C)[C@H]([C@H](OC(=O)c3ccccc3)[C@]3(O)C[C@H](OC(=O)[C@H](O)[C@@H](NC(=O)c4ccccc4)c4ccccc4)C(C)=C1C3(C)C)[C@]1(OC(C)=O)CO[C@@H]1C[C@@H]2O [Paclitaxel] | – | – | – | 4 | improved | elevated | about a factor of four higher | up to 1600 μM | about a factor of four higher | substantially improved | 5 | not lower | 10 | below 1 μM | below 1 μg/ml

Reference: patent US20120100067A1, “Solubilisation Method” (MEDIGENE AG, priority 2008, published 2012)
